Assay results taken from ChEMBL document CHEMBL5137088 (J Med Chem, 2022).

Assays:
in vitro [1] = details: human, human liver (fraction not stated)
in vitro [2] = details: dog, MDCK cells
in vitro [3] = details: human, liver microsomes
in vitro [4] = details: chicken, chick embryo fibroblast cells
in vitro [5] = details: human, human liver (fraction not stated); remark: listed apart in the source
[6] = Acute toxicity in 12 hrs fasted Kunming mouse assessed as animal death at 1000 mg/kg, po measured for 1 week; assay type: organism-based; details: in vivo, 168 h, time 1 weeks
[7] = Cmax in Sprague-Dawley rat at 2 mg/kg, iv measured upto 12 hrs by LC-MS/MS analysis; assay type: ADME, organism-based; design: time < 12 hrs, dose 2 mg/kg, route iv; details: in vivo
Cytochrome P450 1A2 = biological target: T1, Cytochrome P450 1A2 (Homo sapiens, UniProt P05177)
T1 sequence (P05177 whole entry): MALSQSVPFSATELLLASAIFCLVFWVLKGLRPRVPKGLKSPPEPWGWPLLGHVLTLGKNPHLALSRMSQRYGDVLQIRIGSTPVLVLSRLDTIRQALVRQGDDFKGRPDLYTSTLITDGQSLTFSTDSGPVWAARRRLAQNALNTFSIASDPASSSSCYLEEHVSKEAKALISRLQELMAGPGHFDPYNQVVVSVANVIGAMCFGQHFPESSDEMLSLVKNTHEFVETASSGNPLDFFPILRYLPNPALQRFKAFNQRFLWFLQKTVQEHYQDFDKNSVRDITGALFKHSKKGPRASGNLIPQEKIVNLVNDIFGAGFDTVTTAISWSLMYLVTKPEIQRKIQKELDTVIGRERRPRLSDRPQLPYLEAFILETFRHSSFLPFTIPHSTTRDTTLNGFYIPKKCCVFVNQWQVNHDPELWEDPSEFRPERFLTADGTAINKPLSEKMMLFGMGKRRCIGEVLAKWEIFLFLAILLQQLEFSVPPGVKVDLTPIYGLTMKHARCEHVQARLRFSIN

Cytochrome P450 2C9 = Cytochrome P450 2C9 (Homo sapiens, UniProt P11712); assay type: ADME, microsomes, Liver, Microsome
[8] = Oral bioavailability in Sprague-Dawley rat at 20 mg/kg measured upto 12 hrs by LC-MS/MS analysis; assay type: ADME, organism-based; details: in vivo
[9] = Tmax in Sprague-Dawley rat at 2 mg/kg, iv measured upto 12 hrs by LC-MS/MS analysis; assay type: ADME, organism-based; details: in vivo
[10] = Clearance in Sprague-Dawley rat at 2 mg/kg, iv measured upto 12 hrs by LC-MS/MS analysis; assay type: ADME, organism-based; details: in vivo
[11] = Subacute toxicity in 12 hrs fasted Kunming mouse assessed as animal death at 50 mg/kg, iv administered once every two days for 2 weeks; assay type: organism-based; details: in vivo
[12] = Cmax in Sprague-Dawley rat at 20 mg/kg, po measured upto 12 hrs by LC-MS/MS analysis; assay type: ADME, organism-based; design: time < 12 hrs, dose 20 mg/kg, route po; details: in vivo
[13] = Acute toxicity in 12 hrs fasted Kunming mouse assessed as ruffled fur at 1000 mg/kg, po measured for 1 week; assay type: organism-based; details: in vivo, 168 h, time 1 weeks
[14] = Acute toxicity in 12 hrs fasted Kunming mouse assessed as lethargy at 1000 mg/kg, po measured for 1 week; assay type: organism-based; details: in vivo, 168 h, time 1 weeks
[15] = Subacute toxicity in 12 hrs fasted Kunming mouse assessed as poisoning symptom at 50 mg/kg, po administered once every two days for 2 weeks; assay type: organism-based; details: in vivo
[16] = Subacute toxicity in 12 hrs fasted Kunming mouse assessed as side effect at 50 mg/kg, iv administered once every two days for 2 weeks; assay type: organism-based; details: in vivo
[17] = Half-life in Sprague-Dawley rat at 20 mg/kg, po measured upto 12 hrs by LC-MS/MS analysis; assay type: ADME, organism-based; details: in vivo
[18] = Volume of distribution at steady state in Sprague-Dawley rat at 2 mg/kg, iv measured upto 12 hrs by LC-MS/MS analysis; assay type: ADME, organism-based; details: in vivo, read-out: Vdss
Cytochrome P450 2C19 = Cytochrome P450 2C19 (Homo sapiens, UniProt P33261); assay type: ADME, microsomes, Liver, Microsome
[19] = Subacute toxicity in 12 hrs fasted Kunming mouse assessed as animal death at 50 mg/kg, po administered once every two days for 2 weeks; assay type: organism-based; details: in vivo
Cytochrome P450 3A4 = Cytochrome P450 3A4 (Homo sapiens, UniProt P08684); assay type: ADME, microsomes, Liver, Microsome
[20] = Half-life in Sprague-Dawley rat at 2 mg/kg, iv measured upto 12 hrs by LC-MS/MS analysis; assay type: ADME, organism-based; details: in vivo
[21] = Acute toxicity in 12 hrs fasted Kunming mouse assessed as clonic convulsion at 1000 mg/kg, po measured for 1 week; assay type: organism-based; details: in vivo, 168 h, time 1 weeks
[22] = Tmax in Sprague-Dawley rat at 20 mg/kg, po measured upto 12 hrs by LC-MS/MS analysis; assay type: ADME, organism-based; details: in vivo
Cytochrome P450 2D6 = Cytochrome P450 2D6 (Homo sapiens, UniProt P10635)
[23] = Subacute toxicity in 12 hrs fasted Kunming mouse assessed as increase in body weight at 50 mg/kg, po administered once every two days for 2 weeks relative to control; assay type: organism-based; details: in vivo
in vitro [24] = details: human, Caco-2

Cytochrome P450 2D6, sequence (P10635 whole entry): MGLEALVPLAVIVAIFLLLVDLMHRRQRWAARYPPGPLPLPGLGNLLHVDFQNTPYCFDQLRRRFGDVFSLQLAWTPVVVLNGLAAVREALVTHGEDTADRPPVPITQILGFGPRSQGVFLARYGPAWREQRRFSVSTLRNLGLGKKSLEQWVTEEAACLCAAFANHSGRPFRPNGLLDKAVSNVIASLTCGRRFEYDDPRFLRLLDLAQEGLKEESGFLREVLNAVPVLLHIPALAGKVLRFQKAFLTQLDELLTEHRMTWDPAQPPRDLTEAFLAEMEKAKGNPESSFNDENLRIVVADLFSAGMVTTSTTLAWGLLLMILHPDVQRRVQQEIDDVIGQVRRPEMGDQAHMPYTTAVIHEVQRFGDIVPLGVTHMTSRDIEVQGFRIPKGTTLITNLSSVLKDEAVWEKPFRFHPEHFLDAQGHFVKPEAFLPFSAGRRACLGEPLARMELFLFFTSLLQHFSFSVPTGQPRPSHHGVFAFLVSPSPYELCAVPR
Cytochrome P450 2C19, sequence (P33261 whole entry): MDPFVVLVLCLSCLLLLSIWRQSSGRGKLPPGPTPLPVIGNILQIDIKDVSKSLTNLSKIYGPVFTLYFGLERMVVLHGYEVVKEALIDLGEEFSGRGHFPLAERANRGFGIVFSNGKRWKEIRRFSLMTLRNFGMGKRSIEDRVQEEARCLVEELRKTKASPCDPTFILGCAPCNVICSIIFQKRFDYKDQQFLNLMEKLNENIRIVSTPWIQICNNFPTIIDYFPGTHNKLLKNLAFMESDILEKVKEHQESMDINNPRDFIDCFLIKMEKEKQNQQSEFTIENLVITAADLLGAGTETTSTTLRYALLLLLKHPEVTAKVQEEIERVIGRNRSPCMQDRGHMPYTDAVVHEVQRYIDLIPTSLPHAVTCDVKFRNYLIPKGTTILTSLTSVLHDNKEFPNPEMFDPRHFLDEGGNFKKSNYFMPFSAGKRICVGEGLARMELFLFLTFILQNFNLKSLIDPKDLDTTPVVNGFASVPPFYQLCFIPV
Cytochrome P450 3A4, sequence (P08684 whole entry): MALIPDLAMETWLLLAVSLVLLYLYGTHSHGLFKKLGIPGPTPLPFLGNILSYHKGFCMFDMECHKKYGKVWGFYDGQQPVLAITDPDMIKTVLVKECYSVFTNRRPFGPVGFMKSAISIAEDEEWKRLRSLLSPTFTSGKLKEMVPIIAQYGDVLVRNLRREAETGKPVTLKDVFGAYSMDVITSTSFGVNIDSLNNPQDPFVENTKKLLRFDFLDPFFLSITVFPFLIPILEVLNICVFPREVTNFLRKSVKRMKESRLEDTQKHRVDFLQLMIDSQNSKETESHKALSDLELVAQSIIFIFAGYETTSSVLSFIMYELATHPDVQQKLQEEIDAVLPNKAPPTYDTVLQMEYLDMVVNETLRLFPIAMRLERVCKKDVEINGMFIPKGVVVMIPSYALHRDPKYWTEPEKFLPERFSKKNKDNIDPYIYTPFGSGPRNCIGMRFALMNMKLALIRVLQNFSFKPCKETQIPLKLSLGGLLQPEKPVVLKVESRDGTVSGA
Cytochrome P450 2C9, sequence (P11712 whole entry): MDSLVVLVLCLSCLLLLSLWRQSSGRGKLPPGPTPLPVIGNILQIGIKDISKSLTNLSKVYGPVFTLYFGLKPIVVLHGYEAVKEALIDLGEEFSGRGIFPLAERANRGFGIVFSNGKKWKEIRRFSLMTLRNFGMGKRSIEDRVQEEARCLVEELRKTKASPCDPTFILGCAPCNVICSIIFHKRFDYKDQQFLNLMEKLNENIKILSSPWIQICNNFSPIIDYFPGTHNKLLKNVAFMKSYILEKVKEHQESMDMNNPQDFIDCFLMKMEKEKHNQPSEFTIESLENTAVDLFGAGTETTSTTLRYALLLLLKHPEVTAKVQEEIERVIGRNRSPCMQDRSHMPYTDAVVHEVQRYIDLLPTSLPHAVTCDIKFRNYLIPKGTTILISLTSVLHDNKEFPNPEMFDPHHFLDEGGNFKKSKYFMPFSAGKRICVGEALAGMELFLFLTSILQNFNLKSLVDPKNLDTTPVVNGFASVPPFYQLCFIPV

| Compound | CLint scaled at 2 h (in vitro [1]) [mL/min/kg] | CC50 at 48 h (in vitro [2]) [µM] | half-life at 2 h (in vitro [3]) [min] | CC50 at 48 h (in vitro [4]) [µM] | remaining at 60 min (in vitro [5]) [%] | IC50 (Cytochrome P450 1A2) [µM] | IC50 (Cytochrome P450 2C9) [µM] | IC50 (Cytochrome P450 2C19) [µM] | IC50 (Cytochrome P450 3A4) [µM] | IC50 (Cytochrome P450 2D6) [µM] | other results |
| --- | --- | --- | --- | --- | --- | --- | --- | --- | --- | --- | --- |
| CCC(CC)O[C@@H]1C=C(C(=O)O)C[C@H](N)[C@H]1NC(C)=O [OSELTAMIVIR CARBOXYLATE] | 28 | > 250 | 72.4 | > 250 | 40.6 | – | – | – | – | – | – |
| CCC(CC)O[C@@H]1C=C(C(=O)O)C[C@H](NCc2ccc(-c3ccsc3)cc2OC)[C@H]1NC(C)=O | < 8.6 | > 250 | > 145 | > 250 | 79.3 | 28.9 | 47.3 | 47.8 | > 100 | > 100 | Activity [6]: Non-Toxic; Cmax [7]: 7200 ng/mL; bioavailability [8]: 1.58%; Tmax [9]: 4.98 min; clearance [10]: 17.2 mL/min/kg; Activity [11]: Non-Toxic; Cmax [12]: 491 ng/mL; Activity [13]: Non-Toxic; Activity [14]: Non-Toxic; Activity [15]: Non-Toxic; Activity [16]: Non-Toxic; half-life [17]: 50.2 min; Vd [18]: 0.179 L/kg; Activity [19]: Non-Toxic; half-life [20]: 12.8 min; Activity [21]: Non-Toxic; Tmax [22]: 30 min; Activity [23]: Non-Toxic; Papp A→B at 2 h, 20 µM (in vitro [24]): 0.0262 ×10⁻⁶ cm/s |
| CCC(CC)O[C@@H]1C=C(C(=O)O)C[C@H](NCc2ccc(-c3cccs3)cc2OC)[C@H]1NC(C)=O | 10.4 | > 250 | 120 | > 250 | 73.8 | 20.7 | 41.6 | 30.3 | 87.6 | > 100 | Activity [6]: Non-Toxic; Cmax [7]: 6870 ng/mL; bioavailability [8]: 1.5%; Tmax [9]: 4.98 min; clearance [10]: 17.7 mL/min/kg; Activity [11]: Non-Toxic; Cmax [12]: 511 ng/mL; Activity [13]: Non-Toxic; Activity [14]: Non-Toxic; Activity [15]: Non-Toxic; Activity [16]: Non-Toxic; half-life [17]: 20.9 min; Vd [18]: 0.191 L/kg; Activity [19]: Non-Toxic; half-life [20]: 12.8 min; Activity [21]: Non-Toxic; Tmax [22]: 20 min; Activity [23]: Non-Toxic; Papp A→B at 2 h, 20 µM (in vitro [24]): 0.0191 ×10⁻⁶ cm/s |
| CCC(CC)O[C@@H]1C=C(C(=O)O)C[C@H](NCc2ccc(-c3cccs3)cc2Cl)[C@H]1NC(C)=O | < 8.6 | > 250 | > 145 | > 250 | 76.1 | 12.7 | 86.5 | 39.3 | > 100 | > 100 | – |
| C[C@]12CC[C@H]3[C@@H](CCC4=CC(=O)CC[C@@]43C)[C@@H]1CC[C@@H]2O [TESTOSTERONE] | 89.7 | – | – | – | 5.1 | – | – | – | – | – | – |
| CC(C)(C)NCC(O)COc1cccc2c1CC(O)C(O)C2 (stereo unspecified) [NADOLOL] | – | – | – | – | – | – | – | – | – | – | Papp A→B at 2 h, 20 µM (in vitro [24]): 0.0491 ×10⁻⁶ cm/s |
| CCC(CC)O[C@@H]1C=C(C(=O)O)C[C@H](NCc2ccc(-c3cccs3)cc2C)[C@H]1NC(C)=O | 10.2 | > 250 | 123 | > 250 | 71.7 | 19.5 | 43.6 | 38.9 | > 100 | > 100 | – |
| CCC(CC)O[C@@H]1C=C(C(=O)O)C[C@H](NCc2ccc(-c3ccsc3)cc2C)[C@H]1NC(C)=O | – | > 250 | – | > 250 | – | – | – | – | – | – | – |
| CCC(CC)O[C@@H]1C=C(C(=O)O)C[C@H](NCc2c(C)cc(-c3ccsc3)cc2C)[C@H]1NC(C)=O | – | > 250 | – | > 250 | – | – | – | – | – | – | – |
| CCC(CC)O[C@@H]1C=C(C(=O)O)C[C@H](NCc2c(C)cc(-c3cccs3)cc2C)[C@H]1NC(C)=O | – | > 250 | – | > 250 | – | – | – | – | – | – | – |
| CCC(CC)O[C@@H]1C=C(C(=O)O)C[C@H](NCc2ccc(-c3ccsc3)cc2Cl)[C@H]1NC(C)=O | < 8.6 | > 250 | > 145 | > 250 | 78.1 | 14.3 | 31.8 | 36.6 | 72.5 | > 100 | – |
| O=C(O)Cc1ccccc1Nc1c(Cl)cccc1Cl [DICLOFENAC] | 225 | – | 5.5 | – | – | – | – | – | – | – | – |
| CCC(CC)O[C@@H]1C=C(C(=O)O)C[C@H](NCc2ccc(-c3ccsc3)cc2O)[C@H]1NC(C)=O | 17.2 | > 250 | 44.5 | > 250 | 59 | – | – | – | – | – | – |
| CCC(CC)O[C@@H]1C=C(C(=O)O)C[C@H](NCc2ccc(-c3cccs3)c(Cl)c2)[C@H]1NC(C)=O | – | > 250 | – | > 250 | – | – | – | – | – | – | – |
